Experimental data reported in patent US20120029187A1, “HALOALKYLSULFONANILIDE DERIVATIVE” (Nissan Chemical Industries, Ltd., priority 2009, published 2012).

Experiments:
Type in all cases: in vivo
posumbu knotweed = assay: Test Example 4: herbicidal effect in foliage treatment; conditions: dose 3.2 g/a
Method in brief: (§1)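 Seeds were spot-sown in boxes of sterilized diluvial soil and raised in a greenhouse (25 to 30° C) for 14 days before a single foliar application. Compounds were applied as emulsifiable concentrates diluted with water, at predetermined doses in g/a. Injury was graded three weeks post-spray.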

common ragweed [1] = assay: as above; conditions: dose 3.2 g/a
Method in brief: as §1

Italian ryegrass [2] = assay: as above; conditions: dose 3.2 g/a
Method in brief: as §1

water foxtail [3] = assay: as above; conditions: dose 3.2 g/a
Method in brief: as §1

common chickweed [4] = assay: as above; conditions: dose 3.2 g/a
Method in brief: as §1

giant foxtail [5] = assay: as above; conditions: dose 3.2 g/a
Method in brief: as §1

common lambsquater [6] = assay: as above; conditions: dose 3.2 g/a
Method in brief: as §1

large crabgrass [7] = assay: as above; conditions: dose 3.2 g/a
Method in brief: as §1

redroot pigweed [8] = assay: as above; conditions: dose 3.2 g/a
Method in brief: as §1

velvetleaf [9] = assay: as above; conditions: dose 3.2 g/a
Method in brief: as §1

barnyardgrass [10] = assay: as above; conditions: dose 3.2 g/a
Method in brief: as §1

transplanted rice = assay: Test Example 1: preemergence treatment under submerged conditions, effect on crop; conditions: dose 2.52 g/a
Method in brief: (§2)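 Submerged conditions, 4 cm water over alluvial soil. Weeds sown and 2.5-leaf rice transplanted; compound applied preemergence to water surface, doses in g per are. Greenhouse, 25 to 30° C., three weeks, then 0–5 mortality rating.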

common ragweed [11] = assay: Test Example 3: herbicidal effects in soil treatment; conditions: dose 3.2 g/a
Method in brief: (§3)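 Seeds were sown in sterilized diluvial soil and covered with about 1.5 cm of soil. Compounds, formulated as emulsifiable concentrates and diluted with water, were sprayed evenly over the soil surface at set doses in g/a. Herbicidal effect was scored on a rating scale three weeks later.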

Italian ryegrass [12] = assay: as above; conditions: dose 3.2 g/a
Method in brief: as §3

water foxtail [13] = assay: as above; conditions: dose 3.2 g/a
Method in brief: as §3

common chickweed [14] = assay: as above; conditions: dose 3.2 g/a
Method in brief: as §3

giant foxtail [15] = assay: as above; conditions: dose 3.2 g/a
Method in brief: as §3

beadstraw = assay: as above; conditions: dose 3.2 g/a
Method in brief: as §3

common lambsquater [16] = assay: as above; conditions: dose 3.2 g/a
Method in brief: as §3

large crabgrass [17] = assay: as above; conditions: dose 3.2 g/a
Method in brief: as §3

redroot pigweed [18] = assay: as above; conditions: dose 3.2 g/a
Method in brief: as §3

velvetleaf [19] = assay: as above; conditions: dose 3.2 g/a
Method in brief: as §3

barnyardgrass [20] = assay: as above; conditions: dose 3.2 g/a
Method in brief: as §3

bulrush [21] = assay: Test Example 1: herbicidal effects in preemergence treatment under submerged conditions; conditions: dose 2.52 g/a
Method in brief: as §2

ducksalad [22] = assay: as above; conditions: dose 2.52 g/a
Method in brief: as §2

barnyardgrass [23] = assay: as above; conditions: dose 2.52 g/a
Method in brief: as §2

bulrush [24] = assay: Test Example 2: herbicidal effects during the vegetation period under submerged conditions; conditions: treatment during the vegetation period under submerged conditions; dose 2.52 g/a
Method in brief: (§4)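 Barnyardgrass, bulrush and ducksalad were co-sown in alluvial soil flooded to 4 cm and grown in a greenhouse at 25 to 30° C. At the 1- or 2-leaf stage, water-diluted emulsifiable concentrates went onto the water surface at set doses (g/a). Herbicidal effect was scored three weeks later on a graded scale.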

ducksalad [25] = assay: as above; conditions: treatment during the vegetation period under submerged conditions; dose 2.52 g/a
Method in brief: as §4

barnyardgrass [26] = assay: as above; conditions: treatment during the vegetation period under submerged conditions; dose 2.52 g/a
Method in brief: as §4

[27] = three weeks after the application

Structure (SMILES): CCOC(=O)N(c1ccccc1CN1COC2(CCCC2)C(Br)C1=O)S(=O)(=O)C(F)(F)F (stereo not shown) [II-77]
- M: posumbu knotweed, herbicidal effect (posumbu knotweed; [27]): 3 (mortality of at least 40% and less than 70%)
- J: common ragweed, herbicidal effect (common ragweed [1]; [27]): 3 (mortality of at least 40% and less than 70%)
- H: Italian ryegrass, herbicidal effect (Italian ryegrass [2]; [27]): 0 (mortality of less than 5% (almost ineffective))
- G: water foxtail, herbicidal effect (water foxtail [3]; [27]): 5 (mortality of 90% or above (nearly complete death))
- N: common chickweed, herbicidal effect (common chickweed [4]; [27]): 3 (mortality of at least 40% and less than 70%)
- E: giant foxtail, herbicidal effect (giant foxtail [5]; [27]): 1 (mortality of at least 5% and less than 20%)
- L: common lambsquater, herbicidal effect (common lambsquater [6]; [27]): 4 (mortality of at least 70% and less than 90%)
- D: large crabgrass, herbicidal effect (large crabgrass [7]; [27]): 1 (mortality of at least 5% and less than 20%)
- K: redroot pigweed, herbicidal effect (redroot pigweed [8]; [27]): 3 (mortality of at least 40% and less than 70%)
- I: velvetleaf, herbicidal effect (velvetleaf [9]; [27]): 3 (mortality of at least 40% and less than 70%)
- A: barnyardgrass, herbicidal effect (barnyardgrass [10]; [27]): 4 (mortality of at least 70% and less than 90%)
- a: transplanted rice, effect on crop (evaluation scale 0-5) (transplanted rice): 0 (mortality of less than 5% (almost ineffective))
- herbicidal effect, J: common ragweed (common ragweed [11]): 0 (mortality of less than 5% (almost ineffective))
- herbicidal effect, H: Italian ryegrass (Italian ryegrass [12]): 1 (mortality of at least 5% and less than 20%)
- herbicidal effect, G: water foxtail (water foxtail [13]): 3 (mortality of at least 40% and less than 70%)
- herbicidal effect, N: common chickweed (common chickweed [14]): 4 (mortality of at least 70% and less than 90%)
- herbicidal effect, E: giant foxtail (giant foxtail [15]): 1 (mortality of at least 5% and less than 20%)
- herbicidal effect, O: beadstraw (beadstraw): 0 (mortality of less than 5% (almost ineffective))
- herbicidal effect, L: common lambsquater (common lambsquater [16]): 5 (mortality of 90% or above (nearly complete death))
- herbicidal effect, D: large crabgrass (large crabgrass [17]): 5 (mortality of 90% or above (nearly complete death))
- herbicidal effect, K: redroot pigweed (redroot pigweed [18]): 4 (mortality of at least 70% and less than 90%)
- herbicidal effect, I: velvetleaf (velvetleaf [19]): 5 (mortality of 90% or above (nearly complete death))
- herbicidal effect, A: barnyardgrass (barnyardgrass [20]): 4 (mortality of at least 70% and less than 90%)
- B: bulrush, herbicidal effect (evaluation scale 0-5) (bulrush [21]): 5 (mortality of 90% or above (nearly complete death))
- C: ducksalad, herbicidal effect (evaluation scale 0-5) (ducksalad [22]): 5 (mortality of 90% or above (nearly complete death))
- A: barnyardgrass, herbicidal effect (evaluation scale 0-5) (barnyardgrass [23]): 5 (mortality of 90% or above (nearly complete death))
- B: bulrush, herbicidal effect (evaluation scale 0-5) (bulrush [24]): 5 (mortality of 90% or above (nearly complete death))
- C: ducksalad, herbicidal effect (evaluation scale 0-5) (ducksalad [25]): 4 (mortality of at least 70% and less than 90%)
- A: barnyardgrass, herbicidal effect (evaluation scale 0-5) (barnyardgrass [26]): 0 (mortality of less than 5% (almost ineffective))

Structure (SMILES): CC1(c2ccccc2)CC(=O)N(Cc2ccccc2NS(=O)(=O)C(F)(F)F)CO1 (stereo not shown) [II-57]
- M: posumbu knotweed, herbicidal effect (posumbu knotweed; three weeks after application): 3 (mortality of at least 40% and less than 70%)
- J: common ragweed, herbicidal effect (common ragweed [1]; three weeks after application): 3 (mortality of at least 40% and less than 70%)
- H: Italian ryegrass, herbicidal effect (Italian ryegrass [2]; three weeks after application): 5 (mortality of 90% or above (nearly complete death))
- G: water foxtail, herbicidal effect (water foxtail [3]; three weeks after application): 3 (mortality of at least 40% and less than 70%)
- N: common chickweed, herbicidal effect (common chickweed [4]; three weeks after application): 4 (mortality of at least 70% and less than 90%)
- E: giant foxtail, herbicidal effect (giant foxtail [5]; three weeks after application): 2 (mortality of at least 20% and less than 40%)
- L: common lambsquater, herbicidal effect (common lambsquater [6]; three weeks after application): 3 (mortality of at least 40% and less than 70%)
- D: large crabgrass, herbicidal effect (large crabgrass [7]; three weeks after application): 2 (mortality of at least 20% and less than 40%)
- K: redroot pigweed, herbicidal effect (redroot pigweed [8]; three weeks after application): 0 (mortality of less than 5% (almost ineffective))
- I: velvetleaf, herbicidal effect (velvetleaf [9]; three weeks after application): 3 (mortality of at least 40% and less than 70%)
- A: barnyardgrass, herbicidal effect (barnyardgrass [10]; three weeks after application): 4 (mortality of at least 70% and less than 90%)
- a: transplanted rice, effect on crop (evaluation scale 0-5) (transplanted rice): 0 (mortality of less than 5% (almost ineffective))
- J: common ragweed, herbicidal effect (evaluation scale 0-5) (common ragweed [11]): 0 (mortality of less than 5% (almost ineffective))
- H: Italian ryegrass, herbicidal effect (evaluation scale 0-5) (Italian ryegrass [12]): 5 (mortality of 90% or above (nearly complete death))
- G: water foxtail, herbicidal effect (evaluation scale 0-5) (water foxtail [13]): 5 (mortality of 90% or above (nearly complete death))
- N: common chickweed, herbicidal effect (evaluation scale 0-5) (common chickweed [14]): 4 (mortality of at least 70% and less than 90%)
- E: giant foxtail, herbicidal effect (evaluation scale 0-5) (giant foxtail [15]): 5 (mortality of 90% or above (nearly complete death))
- O: beadstraw, herbicidal effect (evaluation scale 0-5) (beadstraw): 0 (mortality of less than 5% (almost ineffective))
- L: common lambsquater, herbicidal effect (evaluation scale 0-5) (common lambsquater [16]): 0 (mortality of less than 5% (almost ineffective))
- D: large crabgrass, herbicidal effect (evaluation scale 0-5) (large crabgrass [17]): 3 (mortality of at least 40% and less than 70%)
- K: redroot pigweed, herbicidal effect (evaluation scale 0-5) (redroot pigweed [18]): 0 (mortality of less than 5% (almost ineffective))
- I: velvetleaf, herbicidal effect (evaluation scale 0-5) (velvetleaf [19]): 5 (mortality of 90% or above (nearly complete death))
- A: barnyardgrass, herbicidal effect (evaluation scale 0-5) (barnyardgrass [20]): 2 (mortality of at least 20% and less than 40%)
- B: bulrush, herbicidal effect (evaluation scale 0-5) (bulrush [21]): 5 (mortality of 90% or above (nearly complete death))
- C: ducksalad, herbicidal effect (evaluation scale 0-5) (ducksalad [22]): 5 (mortality of 90% or above (nearly complete death))
- A: barnyardgrass, herbicidal effect (evaluation scale 0-5) (barnyardgrass [23]): 5 (mortality of 90% or above (nearly complete death))
- B: bulrush, herbicidal effect (evaluation scale 0-5) (bulrush [24]): 5 (mortality of 90% or above (nearly complete death))
- C: ducksalad, herbicidal effect (evaluation scale 0-5) (ducksalad [25]): 5 (mortality of 90% or above (nearly complete death))
- A: barnyardgrass, herbicidal effect (evaluation scale 0-5) (barnyardgrass [26]): 2 (mortality of at least 20% and less than 40%)
